Patent EP3928779A1 (Chugai Seiyaku Kabushiki Kaisha, priority 2014, dated 2016)

Test system: rat small-intestinal brush border membrane vesicles
Assay: Inhibitory effect on 33PO4 uptake into rat small-intestinal brush border membrane vesicles (rapid filtration method)
Type: biochemical
Details: 33PO4 uptake into rat small-intestinal BBMVs; test compound 1 µM; reacted for 60 seconds
Description: Brush border membrane vesicles (BBMVs) were prepared using the upper region of the small intestine of each Wistar female rat (4-5 weeks old). […] The ^33PO4 transport activity of the small-intestinal BBMVs was determined by the rapid filtration method. […] Then, ice-cold buffer C (110 mM NaCl, 1 mM KH2PO4, and 10 mM HEPES (pH 7.5)) was added to each reaction mixture, which was immediately suctionfiltered through a Millipore filter. The filter was washed with buffer C, and each sample was then dissolved in a liquid scintillator. The amount of ^33PO4 uptake into BBMVs was measured using a liquid scintillation counter. […]

Going from `C[C@]12CCCN1N(Cc1cc(Cl)ccc1F)C(=O)C(C(=O)Nc1ccc(C(F)(F)F)cc1-c1cc(C(F)(F)F)ncn1)=C2O` [Example 211] to `COc1cccc(-c2cc(C(F)(F)F)ccc2NC(=O)C2=C(O)[C@@]3(C)CCCN3N(Cc3ccc(C#CCOCCCO)c(F)c3F)C2=O)c1OC` [Example 127], the “Rate of uptake inhibition (%) (1 µM)” value rises from 72% to 95%.

Going from `CN1N(Cc2ccc(OCCCCCOC[C@H](O)CO)c(F)c2F)C(=O)C(C(=O)Nc2ccc(C(F)(F)F)cc2-c2cc(C(F)(F)F)ncn2)=C(O)C12CCCC2` [Example 394] to `CN1N(Cc2ccc(OCCN3CCOCC3)c(F)c2F)C(=O)C(C(=O)Nc2ccc(Cl)cc2-c2ccc(C(F)(F)F)nc2)=C(O)C12CCCC2` [Example 288], the “Rate of uptake inhibition (%) (1 µM)” value rises from 45% to 61%.

Going from `CN1N(Cc2ccc(OCCN3CC(F)(F)C3)c(F)c2F)C(=O)C(C(=O)Nc2ccc(C(F)(F)F)cc2-c2cc(C(F)(F)F)ncn2)=C(O)C12CCCC2` [Example 369] to `C[C@]12CCCN1N(Cc1cccc(F)c1F)C(=O)C(C(=O)Nc1ccc(C(F)(F)F)cc1-c1cncc(C#N)c1)=C2O` [Example 82], the “Rate of uptake inhibition (%) (1 µM)” value rises from 43% to 100%.

Compared with `CN1N(Cc2cccc(F)c2F)C(=O)C(C(=O)Nc2ccc(C(F)(F)F)cc2-c2cncc(C(F)(F)F)c2)=C(O)C1(C)C` [Example 305], `C[C@]12CCCN1N(Cc1cccc(F)c1F)C(=O)C(C(=O)Nc1ccc(C(F)(F)F)cc1-c1cnc(Cl)nc1)=C2O` [Example 67] is higher in “Rate of uptake inhibition (%) (1 µM)” value: 66% for the first, 91% for the second.

Compared with `CC(C)[C@H]1C(O)=C(C(=O)Nc2ccc(C(F)(F)F)cc2-c2ccc(C(F)(F)F)nc2)C(=O)N(Cc2cccc(F)c2F)N1C` [Example 253], `COc1cccc(-c2cc(C(F)(F)F)ccc2NC(=O)C2=C(O)[C@@]3(C)CCCN3N(Cc3ccc(C#CCCCO)c(F)c3F)C2=O)c1OC` [Example 138] is higher in “Rate of uptake inhibition (%) (1 µM)” value: 40% for the first, 93% for the second.

First: C[C@]12CCCN1N(Cc1cccc(F)c1F)C(=O)C(C(=O)Nc1ccc(C(F)(F)F)cc1-c1cnc(Br)cn1)=C2O [Example 73]
Second: CN1N(Cc2ccc(OCCCCCOCCO)c(F)c2F)C(=O)C(C(=O)Nc2ccc(C(F)(F)F)cc2-c2cc(C(F)(F)F)ncn2)=C(O)C12CCCC2 [Example 397]
The “Rate of uptake inhibition (%) (1 µM)” value of the first is higher: 74% for the first, 40% for the second.

First: CSc1ccc(-c2cc(C(F)(F)F)ccc2NC(=O)C2=C(O)[C@@]3(C)CCCN3N(Cc3ccc(OCCN4CCOCC4)c(F)c3F)C2=O)cn1 [Example 103]
Second: CN1N(Cc2ccc(OCC3CCCO3)c(F)c2F)C(=O)C(C(=O)Nc2ccc(C(F)(F)F)cc2-c2cc(C(F)(F)F)ncn2)=C(O)C12CCCC2 (stereo not drawn) [Example 413]
The “Rate of uptake inhibition (%) (1 µM)” value of the first is higher: 78% for the first, 34% for the second.

Compared with `CN1N(Cc2ccc(OCCN[C@@H](CC(=O)O)C(=O)O)c(F)c2F)C(=O)C(C(=O)Nc2ccc(C(F)(F)F)cc2-c2cc(C(F)(F)F)ncn2)=C(O)C12CCCC2` [Example 381, (2S)-2-[2-[2,3-Difluoro-4-[[10-hydroxy-6-methyl-8-oxo-9-[[4-trifluoromethyl-2-[6-(trifluoromethyl)pyrimidin-4-yl]phenyl]carbamoyl]-6,7-diazaspiro[4.5]dec-9-en-7-yl]methyl]phenoxy]ethylamino]butanedioate], `CN1N(Cc2ccc(C#CCN3CCOCC3)c(F)c2F)C(=O)C(C(=O)Nc2ccc(Cl)cc2-c2cc(C(F)(F)F)ncn2)=C(O)C1(C)C` [Example 316, N-[4-Chloro-2-[6-(trifluoromethyl)pyrimidin-4-yl]phenyl]-2-[[2,3-difluoro-4-(3-morpholin-4-ylprop-1-ynil)phenyl]methyl]-5-hydroxy-1,6,6-trimethyl-3-oxopyridaxine-4-carboxamide] is higher in “Rate of uptake inhibition (%) (1 µM)” value: 28% for the first, 64% for the second.

First: CN1N(Cc2ccc(OCCCOC[C@H](O)CO)c(F)c2F)C(=O)C(C(=O)Nc2ccc(C(F)(F)F)cc2-c2ccc(C(F)(F)F)nc2)=C(O)C12CCCC2 [Example 386]
Second: (4aS)-1-[(2,3-Difluorophenyl)methyl]-6,6-difluoro-4-hydroxy-N-[5-methyl-2-(trifluoromethyl)furan-3-yl]-2-oxo-5,7-dihydro-4aH-pyrrolo[1,2-b]pyridazine-3-carboxamide [Example 5]
The “Rate of uptake inhibition (%) (1 µM)” value of the first is lower: 36% for the first, 54% for the second.

Going from `C[C@]12CCCN1N(Cc1ccc(OCCN3CCOCC3)c(Cl)c1)C(=O)C(C(=O)Nc1ccc(C(F)(F)F)cc1-c1ccc(C(F)(F)F)nc1)=C2O` [Example 149, (4aR)-1-[[3-Chloro-4-(2-morpholin-4-ylethoxy)phepyl]methyl]-4-hydroxy-4a-methyl-2-oxo-N-[4-(trifluoromethyl)-2-[6-(trifluoromethyl)pyridin-3-yl]phenyl]-6,7-dihydro-5H-pyrrolo[1,2-b]pyridazine-3-carboxamide] to `C[C@]12CCCN1N(Cc1cccc(Cl)c1)C(=O)C(C(=O)Nc1ccc(C(F)(F)F)cc1-c1cc(C(F)(F)F)ncn1)=C2O` [Example 181], the “Rate of uptake inhibition (%) (1 µM)” value rises from 80% to 85%.

Going from `C[C@]12CCCN1N(Cc1cccc(C#N)c1)C(=O)C(C(=O)Nc1cc(F)c(Br)c(F)c1)=C2O` [Example 220] to `C[C@]12CCCN1N(Cc1ccc(Cl)cc1)C(=O)C(C(=O)Nc1cc(F)c(Br)c(F)c1)=C2O` [Example 223], the “Rate of uptake inhibition (%) (1 µM)” value falls from 96% to 77%.

Compared with `COc1cccc(-c2cc(C(F)(F)F)ccc2NC(=O)C2=C(O)[C@@]3(C)CCCN3N(Cc3ccc(OC[C@H]4CCCO4)c(F)c3F)C2=O)c1OC` [Example 159], `Cc1cccc(CN2C(=O)C(C(=O)Nc3cc(F)c(Br)c(F)c3)=C(O)[C@@]3(C)CCCN23)c1F` [Example 195] is lower in “Rate of uptake inhibition (%) (1 µM)” value: 89% for the first, 76% for the second.

Going from `CN1N(Cc2ccc(OCCCOC[C@H](O)CO)c(F)c2F)C(=O)C(C(=O)Nc2ccc(C(F)(F)F)cc2-c2cc(C(F)(F)F)ncn2)=C(O)C12CCCC2` [Example 392] to `CCOC(=O)CCCCCCN1C(=O)C(C(=O)Nc2ccc(C(F)(F)F)cc2-c2ccc(C(F)(F)F)nc2)=C(O)[C@@]2(C)CCCN12` [Example 235, Ethyl 7-[(4aR)-4-hydroxy-4a-methyl-2-oxo-3-[[4-(trinuoromethyl)-2-[6-(trifluoromethyl)pyridin-3-yl]phenyl]carbamoyl]-6,7-dihydro-5H-pyrrolo[1,2-b]pyridazin-1-yl]heptanoate], the “Rate of uptake inhibition (%) (1 µM)” value rises from 47% to 65%.

First: CCN1[C@@H](C(C)(C)C)C(O)=C(C(=O)Nc2ccc(Cl)cc2-c2ccc(C(F)(F)F)nc2)C(=O)N1Cc1cccc(F)c1F [Example 245]
Second: CN1[C@@H](C(C)(C)C)C(O)=C(C(=O)Nc2ccc(Cl)cc2-c2cc(C(F)(F)F)ncn2)C(=O)N1Cc1cccc(F)c1F [Example 237]
The “Rate of uptake inhibition (%) (1 µM)” value of the first is lower: 40% for the first, 51% for the second.

Compared with “(4aR)-1-[(2,3-Difluorophenyl)methyl]-4-hydroxy-N-[5-methyl-2-(trifluoromethyl)furan-3-yl]-2-oxo-4a-propyl-6,7-dihydro-5H-pyrrolo[1,2-b]pyridazine-3-carboxamide [Example 12]”, `Cc1ncc(-c2cc(C(F)(F)F)ccc2NC(=O)C2=C(O)[C@@]3(C)CCCN3N(Cc3cccc(F)c3F)C2=O)cc1C#N` [Example 109, (4aR)-N-[2-(5-Cyano-6-methylpyridin-3-yl)-4-(trifluoromethyl)phenyl]-1-[(2,3-difluorophenyl)methyl]-4-hydroxy-4-methyl-2-oxo-6,7-dihydro-5H-pyrrolo[1.2-b]pyridazine-3-carboxamide] is higher in “Rate of uptake inhibition (%) (1 µM)” value: 27% for the first, 52% for the second.

Compared with `C[C@]12CCCN1N(Cc1cccc(F)c1F)C(=O)C(C(=O)Nc1ccc(C(F)(F)F)cc1-c1ccc(C(F)(F)F)nc1)=C2O` [Example 90], `CSc1ccc(-c2cc(C(F)(F)F)ccc2NC(=O)C2=C(O)[C@@]3(C)CCCN3N(Cc3ccc(OCCCCOC[C@H](O)CO)c(F)c3F)C2=O)cn1` [Example 120, (4aR)-1-[[4-[4-[(2R)-2,3-Dihydroxypropoxy]butoxy]-2,3-difluorophenyl]methyl]-4-hydroxy-4a-methyl-N-[2-(6-methylsulfanylpyridin-3-yl)-4-(trifluoromethyl)phenyl]-2-oxo-6,7-dihydro-5H-pyrrolo[1,2-b]pyridazine-3-carboxamide] is lower in “Rate of uptake inhibition (%) (1 µM)” value: 91% for the first, 66% for the second.

Compared with `CN1N(Cc2ccc(OCCN3CCOCC3)c(F)c2F)C(=O)C(C(=O)Nc2ccc(C(F)(F)F)cc2-c2cc(C(F)(F)F)ncn2)=C(O)C12CCCCC2` [Example 295], `Cc1cc(NC(=O)C2=C(O)[C@H]3CCCN3N(Cc3cccc(F)c3)C2=O)c(C(F)(F)F)o1` [Example 2, (4aR)-1-[(3-Fluorophenyl)methyl]-4-hydroxy-N-[5-methyl-2-(trifluoromethyl)furan-3-yl]-2-oxo-4a,5,6,7-tetrahydropyrrolo[1,2-b]pyridazine-3-carboxamide] is lower in “Rate of uptake inhibition (%) (1 µM)” value: 21% for the first, 19% for the second.

Going from `COC(=O)c1cc(F)c(CN2C(=O)C(C(=O)Nc3ccc(C(F)(F)F)cc3-c3ccc(C(F)(F)F)nc3)=C(O)[C@@]3(C)CCCN23)c(F)c1` [Example 165, Methyl 4-[[(4aR)-4-Hydroxy-4a-methyl-2-oxo-3-[[4-(trifluoromethyl)-2-[6-(trifluoromethyl)pyridin-3-yl]phenyl]carbamoyl]-6,7-dihydro-5H-pyrrolo[1,2-b]pyridazin-1 - yl]methyl]-3,5-difluorobenzoate] to `CN(CCOc1ccc(CN2C(=O)C(C(=O)Nc3ccc(C(F)(F)F)cc3-c3cc(C(F)(F)F)ncn3)=C(O)C3(CCC3)N2C)c(F)c1F)C1COC1` [Example 402, 6-(2,3-Difluoro-4-(2-(methyl(oxetan-3-yl)amino)ethoxy)benzyl)-9-hydroxy-5-methyl-7-oxo-N-(4-(trifluoromethyl)-2-(6-(trifluoromethyl)pyrimidin-4-yl)phenyl)-5,6-diazaspiro[3.5]non-8-ene-8-carboxamide], the “Rate of uptake inhibition (%) (1 µM)” value falls from 75% to 54%.
